Source: patent US20240374546A1, “USES AND METHODS FOR PROMOTING INCREASED MITOCHONDRIAL MASS AND FUNCTION” (Brightseed, Inc., priority 2022, published 2024)

Key:
[1] = Oil red O staining of liver sections; type: in vivo, mouse; conditions: HFD+NCT vs HFD, 10 weeks
Experimental: Oil red O staining was performed as described previously (34). Slides containing frozen liver tissue sections from mice were air dried for 10-20 min followed by rehydration in distilled water. Sections were immersed in absolute propylene glycol (Cat #151957, MP Biomedicals, LLC, USA) for 2 min followed by 0.5% in Oil red O solution (Cat #K043, Poly Scientific R&D, USA) for 2 hours. Slides were then differentiated in 85% propylene glycol solution, washed with dH2O for 2 hours, and mounted using glycerin jelly mounting medium. All slides were scanned at a magnification of 20× using the Aperio Scanscope FL system (Aperio Technologies Inc., Vista, CA, USA). The liver area stained with oil red O was measured using image J software as described, with some modifications as follow, Oil red O-stained liver images were opened in Image J software. Using the Analyze>Set Scale command, the scale bar of the images was set to 200 um. RGB images were then converted into gray scale images using the Image>Type>RGB Stack command and were split into red, blue and green channels. Using the Image >Adjust>Threshold command, the threshold was manually set to highlight the Oil red O stained lipid droplets in the green channel. […] Fold change was calculated by normalizing the values to images from mice fed normal chow.

[2] = system: fatty acid oxidation (FAO); assay: Fatty acid oxidation assay in liver lysate; type: in vivo, mouse; conditions: HFD+NCT vs HFD
Experimental: FAO in liver lysate was measured according to manufacturer's instructions using a calorimetric assay kit (Cat #E-141, Biomedical Research Service Centre, State University of New York, Buffalo, NY).
The large weight difference between the HFD and HFD+NCT groups in conjunction with decreased subcutaneous and hepatic adiposity was striking. There are only two routes of fat elimination; in the stool by malabsorption, which it was ruled out (FIG. 1E) and by oxidation. Thus, it was hypothesized that NCT was inducing an increase in FAO. Quantification of FAO was done using an assay that measures NADH by the conversion of iodonitrotetrazolium (INT) to INT-Formazan mediated by the NADH-requiring enzyme diaphorase. Performing the assay in the presence and absence of added octanoyl-CoA, which is converted through fatty acid β-oxidation to acetyl-CoA with conversion of NAD+ to NADH, provides specificity for FAO. The level of fatty acid oxidation is determined as the INT-formazan level in the presence of octanoyl CoA minus the level in the absence of octanoyl CoA.

cytochrome C = assay: Western blot, mouse liver, cytochrome C; type: in vivo; conditions: HFD+NCT vs HFD
Experimental: Mouse liver extracts were prepared by incubation in RIPA buffer (Invitrogen) containing protease inhibitors (Calbiochem, San Diego, CA). Protein was quantified by BCA assay (Thermo Scientific). Protein ([…] for cytochrome C) was separated on 12% or 16% Tri-Glycine gels (Invitrogen) and transferred to Immobilon P membrane (0.2 μm pore size, Millipore). After 1 hour in phosphate-buffered saline-Tween (PBST) with 3% milk, membranes were incubated with antibodies to PPARGC1A(PGC1α) (Cat #NBP1-04676, Novus, 1:1000), SDHA XP (Cat #11998, Cell Signaling 1:1000), or Cytochrome C (Cat #4280, Cell Signaling 1:500), followed by secondary antibody conjugated to horseradish peroxidase (1:5000, Jackson Immune or Cell Signaling). […] After detection, membrane was incubated with Ponceau S solution (Sigma) for 1 hr for normalization to loaded protein.

IL-1P mRNA = assay: qPCR mouse liver, IL-1β mRNA; type: in vivo; conditions: HFD+NCT vs HFD
Experimental: Total RNA was isolated from liver tissues and primary human hepatocytes using Trizol (Invitrogen). cDNA was amplified using 3 μg of total RNA using qScript cDNA SuperMix (Quanta BioSciences, Beverly, MA, USA). Quantitative real time PCR (RT-PCR) analysis was performed using SYBR® Select Master Mix (Applied Biosystems) and an ABI 7900HT thermal cycler (Applied Biosystems, Thermo Fisher Scientific). Ct values were normalized to 18s rRNA and are expressed as fold change over samples from mice fed NC or cultured human hepatocytes without NCT.

nitric oxide (NO) = assay: Nitric oxide assay, mouse liver; type: in vivo; conditions: HFD+NCT vs HFD, normalized to liver weight
Experimental: T6PNE cells were maintained in RPMI (5.5 mM glucose, Corning) supplemented with 10% fetal bovine serum (FBS, Sigma-Aldrich) and 1% penicillin-streptomycin (pen-strep, Gibco) in 5% CO2 at 37° C. Cells were treated with […] palmitate plus 0 or 15 μM NCT for 3 days in 10 cm plates and harvested with 500 μl PBS. For tissue specimens, snap frozen mouse liver was weighed and homogenized with PBS. NO was measured with the QuantiChrom Nitric Oxide Assay kit (D2NO-100, BioAssay Systems). Homogenized samples (150 μl) were processed for deproteination with 8 μl ZnSO4 and 8 μl NaOH. For normalization, an aliquot of samples from T6PNE cells was taken for BCA assay before deproteination. Samples and standard from kit incubated with reagents for 20 min at 60° C. and measured OD 540 nm.

[3] = Overall tolerability across studies (maximum tolerated dose, two-week IP, long term oral); type: in vivo; conditions: short-term maximum tolerated dose study, two-week IP 200 mg/kg bid, long term oral administration
From the text: Given the chronic nature of disorders of lipotoxicity, the lack of discernable toxicity of NCT is critical, but this will obviously require additional investigation in human clinical trials.

O=C(/C=C/c1ccc(O)c(O)c1)NCCc1ccc(O)cc1 [NCT, N-transcaffeoyltyramine]
Oil Red O staining of liver [1]: decreased Oil Red O staining | FAO activity in the presence of octanoyl CoA [2]: increase | baseline activity in the absence of octanoyl CoA [2]: increase | overall FAO activity (+octanoyl CoA minus −octanoyl CoA) [2]: unchanged | hepatic cytochrome C protein level (HFD-induced decrease) (cytochrome C): reversed | ILI p expression (FIG. 5C, mouse liver) (IL-1P mRNA): not significantly changed | nitric oxide (NO) in liver (nitric oxide (NO)): decreased | deleterious effects / toxicity [3]: not seen any deleterious effects | body weight less than mice fed HFD (HFD+NCT (4000 ppm NCT in chow, approx. 400 mg/kg/d) vs HFD, end of experiment at 10 weeks): ~10 gm | week at which lower body weight became evident (HFD+NCT vs HFD): 5 week | difference in body weight (HFD+NCT vs HFD, 10 weeks): 35-40% | liver redness (HFD+NCT vs HFD, 10 weeks): redder livers | obesity (appearance) (HFD+NCT vs HFD, 10 weeks): markedly less obese | epididymal fat pad weight (HFD+NCT vs HFD, end of study, normalized to body weight): no change | liver weight (HFD+NCT vs HFD, normalized to body weight): lower liver weight | liver size (HFD+NCT vs HFD, photographs): reduction of liver size | physical activity or other behaviors (mouse, in vivo): no discernible difference
